Measured values published in publication PMC12137140, “The fast-evolving FIKK kinase family of Plasmodium falciparum can be inhibited by a single compound” (Nature Microbiology, 2025).

target: T1, FIKK1 (Plasmodium falciparum, UniProt B9ZSH8); experiment: ADP-Glo kinase assay, % inhibition heat map (n = […]); assay type: biochemical
T1 construct: gene PF3D7_0102600; recombinant kinase domain
T1 sequence (B9ZSH8 entry or part of it): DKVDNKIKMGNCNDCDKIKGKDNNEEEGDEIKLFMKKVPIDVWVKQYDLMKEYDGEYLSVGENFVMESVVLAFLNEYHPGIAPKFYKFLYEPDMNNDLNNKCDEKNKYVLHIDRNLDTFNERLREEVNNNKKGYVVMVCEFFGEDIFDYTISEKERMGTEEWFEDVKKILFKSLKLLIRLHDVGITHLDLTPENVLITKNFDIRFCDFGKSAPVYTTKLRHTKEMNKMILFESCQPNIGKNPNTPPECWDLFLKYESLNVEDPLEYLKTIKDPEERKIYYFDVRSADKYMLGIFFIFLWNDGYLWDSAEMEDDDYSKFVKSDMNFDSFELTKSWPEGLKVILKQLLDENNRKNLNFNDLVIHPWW

Question: How did the “ADP-Glo kinase assay, % inhibition heat map (n = 3)” value turn out when `Cc1cc(O)c2c(c1)C(=O)c1cc(O)cc(O)c1C2=O` [Emodin] was run?
Answer: Its value is “showed potency against all PfFIKKs (Fig. 6d)”.

target: T2, FIKK8 (Plasmodium falciparum, UniProt C0H4R8); experiment: biochemical; design: ADP-Glo luminescence kinase assay, recombinant FIKK8 kinase domain, Po peptide substrate plus ATP, four-parameter IC50 fit
T2 construct: gene PF3D7_0805700; recombinant FIKK8 kinase domain
Description: Columns 6 and 18 of the microplates served as controls. Column 6 was a positive control (recombinant FIKK8 kinase domain + Po peptide ([…])[22] + ATP without compounds). Column 18 was a negative control (recombinant FIKK8 kinase domain + Po peptide − ATP). First, 3 µl kinase at 40 nM in kinase reaction buffer (20 mM MOPS, 10 mM magnesium chloride and 10 mM manganese chloride, pH 7.4 (Alfa Aesar)) was dispensed in each well using a Multidrop Combi Reagent dispenser (Thermo Fisher Scientific). Recombinant FIKK8 kinase domain was left to incubate in the presence of compounds for 15 min at room temperature. Then, 3 µl Po peptide + ATP at 20 µM each, diluted in kinase reaction buffer, was dispensed in each well except in column 18 in which 3 µl of peptide without ATP was dispensed. The kinase reaction was left to occur for 1 h and was stopped with 6 µl ADP-Glo reagent. Kinase activity was assessed after addition of 12 µl kinase detection reagent by measuring luminescence on a multimode microplate reader FLUOstar Omega (BMG Labtech).

T2 sequence (C0H4R8 entry or part of it): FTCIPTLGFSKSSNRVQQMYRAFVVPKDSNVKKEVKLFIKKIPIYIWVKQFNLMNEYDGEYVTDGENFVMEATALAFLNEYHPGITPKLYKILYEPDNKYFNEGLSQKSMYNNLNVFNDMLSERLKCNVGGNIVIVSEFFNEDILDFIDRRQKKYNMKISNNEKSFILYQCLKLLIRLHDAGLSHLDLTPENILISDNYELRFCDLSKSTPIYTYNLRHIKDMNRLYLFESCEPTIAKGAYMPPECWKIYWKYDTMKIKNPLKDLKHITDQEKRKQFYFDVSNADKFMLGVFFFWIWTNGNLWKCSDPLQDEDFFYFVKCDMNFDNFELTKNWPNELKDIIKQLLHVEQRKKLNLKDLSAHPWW

Question: For `CN1CCC(n2cnc(-c3ccc(F)cc3)c2-c2ccnc(NC3CCNCC3)n2)CC1` [SB-229482], which IC50 is on record?
Answer: The IC50 was 24 ± 1.7 nM.

Question: Which IC50 does the source give for `CCN(CC)Cc1ccc(Nc2nccc(-c3cnn4ncccc34)n2)cc1` [GW780056X] here?
Answer: The IC50 was 332 ± 88 nM.

Question: Which IC50 does the source give for `O=c1[nH]ccc2nc(N[C@@H]3CCCNC3)nc(Nc3ccc(S(=O)(=O)N4CCOCC4)cc3)c12` [GSK2177277A] here?
Answer: Its IC50 is 48 ± 4.4 nM.

Question: How did the IC50 turn out when `O=C(Nc1n[nH]c2nnc(-c3cccnc3)cc12)C1CC1` [SB-675259-M] was run?
Answer: The IC50 was 168 ± 21 nM.

Question: How did the IC50 turn out when `O=c1[nH]ccc2nc(N[C@@H]3CCNC3)nc(Nc3ccc4c(c3)S(=O)(=O)CC4)c12` [GSK2181306A] was run?
Answer: The IC50 was 31 ± 1.6 nM.

Question: For `CCN1CCC(CC(=O)Nc2n[nH]c3nc(-c4cccs4)c(Br)cc23)CC1` [SB-739245-AC], which IC50 is on record?
Answer: Its IC50 is 238 ± 28 nM.

Question: Which IC50 does the source give for `COc1ccc(Nc2ncc(C#N)c(Nc3ccccc3C(N)=O)n2)cc1N1CCN(C)CC1` [GSK1558669A] here?
Answer: The IC50 was 89 ± 37 nM.

Question: How did the IC50 turn out when `Cc1cccc(Nc2nc(N[C@H]3CCNC3)ncc2C(N)=O)c1` [GSK2197149A] was run?
Answer: The IC50 was 315 ± 52 nM.

Question: With `O=c1[nH]ccc2nc(N[C@@H]3CCNC3)nc(Nc3cc(Cl)cc(Cl)c3)c12` [GSK2188764A] as the molecule, how does the IC50 read?
Answer: The IC50 was 60 ± 9.8 nM.

Question: With `CCNc1nccc(-c2c(-c3ccc(F)cc3)ncn2C2CCN(C)CC2)n1` [SB-226605] as the molecule, how does the IC50 read?
Answer: Its IC50 is 98 ± 6.6 nM.

Question: For `CN1CCC(n2cnc(-c3ccc(F)cc3)c2-c2ccnc(NCCO)n2)CC1` [SB-226879], which IC50 is on record?
Answer: Its IC50 is 176 ± 20 nM.

target: T3, FIKK13 (Plasmodium falciparum, UniProt A0A143ZWL4); experiment: ADP-Glo kinase assay, % inhibition heat map (n = […]); assay type: biochemical
T3 construct: gene PF3D7_1371700; recombinant kinase domain
T3 sequence (A0A143ZWL4 entry or part of it): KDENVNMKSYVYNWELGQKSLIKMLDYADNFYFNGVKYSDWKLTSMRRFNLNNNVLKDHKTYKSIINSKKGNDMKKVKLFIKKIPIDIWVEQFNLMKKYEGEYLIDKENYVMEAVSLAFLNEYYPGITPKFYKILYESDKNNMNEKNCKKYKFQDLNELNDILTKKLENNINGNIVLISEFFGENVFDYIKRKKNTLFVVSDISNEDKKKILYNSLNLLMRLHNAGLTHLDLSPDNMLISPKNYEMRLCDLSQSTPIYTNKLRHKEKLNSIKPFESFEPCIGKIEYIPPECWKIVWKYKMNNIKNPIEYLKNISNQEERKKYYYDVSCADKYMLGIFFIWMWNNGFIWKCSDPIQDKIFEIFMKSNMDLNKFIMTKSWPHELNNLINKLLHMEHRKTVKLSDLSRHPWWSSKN

Question: With `Cc1cc(O)c2c(c1)C(=O)c1cc(O)cc(O)c1C2=O` [Emodin] as the molecule, how does the “ADP-Glo kinase assay, % inhibition heat map (n = 3)” value read?
Answer: The value was “showed potency against all PfFIKKs (Fig. 6d)”.
